Test results: PMC5560747, “Computational-experimental approach to drug-target interaction mapping: A case study on kinase inhibitors” (PLoS Computational Biology, 2017)

Columns and labels:
Test in all cases: cell-free ADP-Glo Kinase Assay
Assay type in all cases: biochemical
Conditions in all cases: read-out: Experimental validation pIC50 (converted)
FYN A = FYN A (Homo sapiens, UniProt P06241)
BRK = BRK (Homo sapiens, UniProt Q13882)
SRC = SRC (Homo sapiens, UniProt P12931)
AXL = target: T1, AXL (Homo sapiens, UniProt P30530)
T1 sequence (P30530 26-894): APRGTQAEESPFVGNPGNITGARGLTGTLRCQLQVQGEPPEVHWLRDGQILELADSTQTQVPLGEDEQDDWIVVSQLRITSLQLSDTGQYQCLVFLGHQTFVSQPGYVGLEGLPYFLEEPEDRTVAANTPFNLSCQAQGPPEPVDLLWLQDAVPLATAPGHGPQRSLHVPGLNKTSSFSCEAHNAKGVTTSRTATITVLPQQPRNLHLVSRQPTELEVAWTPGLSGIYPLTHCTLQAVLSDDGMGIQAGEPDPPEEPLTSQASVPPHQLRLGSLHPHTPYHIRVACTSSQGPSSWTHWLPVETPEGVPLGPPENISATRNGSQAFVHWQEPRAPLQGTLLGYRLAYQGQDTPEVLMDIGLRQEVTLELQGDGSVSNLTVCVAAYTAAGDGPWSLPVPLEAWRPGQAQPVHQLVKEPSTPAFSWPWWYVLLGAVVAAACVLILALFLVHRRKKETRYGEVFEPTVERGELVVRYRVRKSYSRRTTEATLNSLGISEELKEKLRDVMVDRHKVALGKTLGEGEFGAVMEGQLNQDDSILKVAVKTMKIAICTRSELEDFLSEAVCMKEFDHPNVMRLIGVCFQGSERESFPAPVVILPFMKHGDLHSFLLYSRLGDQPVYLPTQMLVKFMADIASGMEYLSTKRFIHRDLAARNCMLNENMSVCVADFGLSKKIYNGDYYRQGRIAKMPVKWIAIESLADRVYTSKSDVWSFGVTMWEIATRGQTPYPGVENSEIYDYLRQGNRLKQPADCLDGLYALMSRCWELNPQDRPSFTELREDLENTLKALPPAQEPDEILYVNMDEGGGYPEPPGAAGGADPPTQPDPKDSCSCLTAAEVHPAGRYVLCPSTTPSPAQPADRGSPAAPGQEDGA

Chain of BRK (Q13882 whole entry): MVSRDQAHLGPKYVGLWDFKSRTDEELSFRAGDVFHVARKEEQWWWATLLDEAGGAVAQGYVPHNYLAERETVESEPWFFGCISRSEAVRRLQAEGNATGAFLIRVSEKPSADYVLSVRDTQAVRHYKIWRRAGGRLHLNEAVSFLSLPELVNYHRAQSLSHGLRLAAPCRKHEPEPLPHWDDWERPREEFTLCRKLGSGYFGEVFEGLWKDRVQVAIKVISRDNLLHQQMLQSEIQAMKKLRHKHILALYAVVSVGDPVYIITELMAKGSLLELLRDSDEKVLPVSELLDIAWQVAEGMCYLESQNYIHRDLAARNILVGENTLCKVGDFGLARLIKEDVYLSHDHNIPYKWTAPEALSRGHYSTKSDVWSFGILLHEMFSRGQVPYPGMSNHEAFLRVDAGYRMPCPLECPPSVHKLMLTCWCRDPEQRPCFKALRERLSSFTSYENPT
Chain of FYN A (P06241 whole entry): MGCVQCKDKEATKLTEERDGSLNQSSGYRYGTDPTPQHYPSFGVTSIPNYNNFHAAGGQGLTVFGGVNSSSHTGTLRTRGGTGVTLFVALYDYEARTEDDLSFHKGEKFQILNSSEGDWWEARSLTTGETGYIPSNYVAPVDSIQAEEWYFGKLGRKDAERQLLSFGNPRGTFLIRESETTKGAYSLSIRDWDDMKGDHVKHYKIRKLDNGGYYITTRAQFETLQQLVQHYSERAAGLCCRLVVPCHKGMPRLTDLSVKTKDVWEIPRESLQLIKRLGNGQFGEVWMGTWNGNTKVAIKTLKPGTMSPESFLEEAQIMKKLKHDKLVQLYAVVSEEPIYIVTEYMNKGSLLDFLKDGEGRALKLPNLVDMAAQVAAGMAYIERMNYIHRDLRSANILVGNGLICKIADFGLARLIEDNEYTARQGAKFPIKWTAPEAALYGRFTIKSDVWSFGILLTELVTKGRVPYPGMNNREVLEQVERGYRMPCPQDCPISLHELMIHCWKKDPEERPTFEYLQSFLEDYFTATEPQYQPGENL
Chain of SRC (P12931 whole entry): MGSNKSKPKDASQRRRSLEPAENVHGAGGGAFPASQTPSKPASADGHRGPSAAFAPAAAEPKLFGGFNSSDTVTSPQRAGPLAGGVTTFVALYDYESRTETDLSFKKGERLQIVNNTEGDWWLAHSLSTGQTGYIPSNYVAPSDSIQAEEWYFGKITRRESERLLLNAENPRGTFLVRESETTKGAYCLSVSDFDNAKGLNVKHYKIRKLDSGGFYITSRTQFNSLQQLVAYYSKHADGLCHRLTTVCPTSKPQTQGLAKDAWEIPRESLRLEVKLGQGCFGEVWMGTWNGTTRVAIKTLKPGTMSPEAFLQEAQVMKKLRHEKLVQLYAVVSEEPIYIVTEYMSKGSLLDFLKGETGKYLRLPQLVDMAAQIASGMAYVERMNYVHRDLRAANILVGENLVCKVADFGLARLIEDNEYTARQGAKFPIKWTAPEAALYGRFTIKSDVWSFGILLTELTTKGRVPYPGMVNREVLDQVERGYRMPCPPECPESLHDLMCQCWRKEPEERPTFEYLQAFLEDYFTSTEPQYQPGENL

IC50 (FYN A): 0.135 µM
IC50 (BRK): 0.166 µM
IC50 (SRC): 0.724 µM
IC50 (AXL): 3.09 µM
Structure (SMILES): COc1cc2c(Oc3ccc4[nH]c(C)cc4c3F)ncnc2cc1OCCCN1CCCC1 [Cediranib]
